The conditions of series [1]: 25° C.; method (D), data bases such as pKa BASE of Compudrug; cited from earlier work.
Series [2] in a line: acid dissociation index (pK1, pK2) at 25° C. Conditions: for Difference (pK2 - pK1): 25° C., method (D); for first acid dissociation index / second acid dissociation index: for the dibasic acid, source of value not given. The series is classed as physicochemical. Here is the method: The organic dibasic acid used as a deodorant in the present invention is selected from organic dibasic acids and/or salts thereof having a difference between the first acid dissociation index and the second acid dissociation index of 1.7 or more at 25° C. (hereinafter, described as deodorant organic dibasic acid). The acid dissociation index can be measured, for example, by a method (A) described in The Journal of Physical Chemistry vol.
Further, previously obtained data may also be used. […] Further, the organic dibasic acid can be selected based on data bases (D) such as pKa BASE of Compudrug, and the like. The first acid dissociation index and the second acid dissociation index of the organic dibasic acid may be determined by any of the methods (A) to (D).

With `O=C(O)[C@@H]1CCCCC[C@H]1C(=O)O` (relative stereo) [Trans-1,2-cycloheptanedicarboxylic acid], in series [1], the “First acid dissociation index (pK1)” value is given as 4.30 and the “Second dissociation index (pK2)” value is 6.18. Moreover, in series [2], the “Difference (pK2 - pK1)” value is listed as 1.88.
For `O=C(O)[C@@H]1CCCC[C@H]1C(=O)O` (relative stereo) [Trans-1,2-cyclohexanedicarboxylic acid], in series [2], the “Difference (pK2 - pK1)” value came out at 1.76.
`O=C(O)[C@@H]1CCCCCC[C@H]1C(=O)O` (relative stereo) [Trans-1,2-cyclooctanedicarboxylic acid]: in series [1], the “First acid dissociation index (pK1)” value was 4.37 and the “Second dissociation index (pK2)” value is listed as 6.24. Besides, the “Difference (pK2 - pK1)” value in series [2] is 1.87.
As to `O=C(O)[C@@H]1CCC[C@H]1C(=O)O` (relative stereo) [Trans-1,2-cyclopentandicarboxylic acid], in series [1], the “First acid dissociation index (pK1)” value was 4.14 and the “Second dissociation index (pK2)” value is given as 5.99. Moreover, the “Difference (pK2 - pK1)” value in series [2] came to 1.85.
Consider `CCC(CC)(C(=O)O)C(=O)O` [2,2-diethylmalonic acid], for which, in series [1], the “First acid dissociation index (pK1)” value is reported as 2.15 and the “Second dissociation index (pK2)” value was 7.42. Further, in series [2], the “Difference (pK2 - pK1)” value came out at 5.27.
Regarding `CC(C)C(C(=O)O)(C(=O)O)C(C)C` [2,2-diisopropylmalonic acid], in series [1], the “First acid dissociation index (pK1)” value is on record as 2.12 and the “Second dissociation index (pK2)” value was 8.85. Besides, the “Difference (pK2 - pK1)” value in series [2] worked out at 6.73.
As for `CC(C)(C(=O)O)C(=O)O` [2,2-dimethylmalonic acid], in series [2], the “Difference (pK2 - pK1)” value is given as 2.70.
On to `CCCC(CCC)(C(=O)O)C(=O)O` [2,2-dipropylmalonic acid], for which, in series [1], the “First acid dissociation index (pK1)” value is 1.86 and the “Second dissociation index (pK2)” value is 7.18. Also, the “Difference (pK2 - pK1)” value in series [2] is recorded as 5.32.
With `CC(C)(C)C(C(=O)O)C(C(=O)O)C(C)(C)C` (centres unmarked) [2,3-di-t-butylsuccinic acid], in series [1], the “First acid dissociation index (pK1)” value is 2.20 and the “Second dissociation index (pK2)” value is reported as 10.26. Also, in series [2], the “Difference (pK2 - pK1)” value worked out at 8.06.
Consider `CCC(C(=O)O)C(CC)C(=O)O` (centres unmarked) [2,3-diethylsuccinic acid], for which, in series [1], the “First acid dissociation index (pK1)” value is on record as 3.63 and the “Second dissociation index (pK2)” value is 6.46. Further, the “Difference (pK2 - pK1)” value in series [2] came out at 2.83.
Turning to `CC(C(=O)O)C(C)C(=O)O` (centres unmarked) [2,3-dimethylsuccinic acid], in series [1], the “First acid dissociation index (pK1)” value was 3.92 and the “Second dissociation index (pK2)” value is reported as 6.00. Besides, the “Difference (pK2 - pK1)” value in series [2] was 2.08.
As for `CCC(CC)C(CC)(CCC(=O)O)C(=O)O` (centres unmarked) [2-ethyl-2-(1-ethylpropyl)glutaric acid], in series [1], the “First acid dissociation index (pK1)” value is recorded as 2.15 and the “Second dissociation index (pK2)” value is reported as 7.31. In series [2], the “Difference (pK2 - pK1)” value is 5.16.
Consider `CCC(C(=O)O)(C(=O)O)C(C)C` [2-ethyl-2-isopropylmalonic acid], for which, in series [1], the “First acid dissociation index (pK1)” value was 2.03 and the “Second dissociation index (pK2)” value is recorded as 8.10. Moreover, the “Difference (pK2 - pK1)” value in series [2] turned out to be 6.07.
On to `CCC(C)(C(=O)O)C(=O)O` [2-ethyl-2-methylmalonic acid], for which, in series [1], the “First acid dissociation index (pK1)” value is 2.20 and the “Second dissociation index (pK2)” value is 6.55. The “Difference (pK2 - pK1)” value in series [2] is 4.35.
As to `CCC(C(=O)O)C(C)C(=O)O` (centres unmarked) [2-ethyl-3-methylsuccinic acid], in series [1], the “First acid dissociation index (pK1)” value is 3.20 and the “Second dissociation index (pK2)” value is 6.10. In series [2], the “Difference (pK2 - pK1)” value stood at 2.90.
As to `CCC(C(=O)O)C(=O)O` [2-ethylmalonic acid], in series [1], the “First acid dissociation index (pK1)” value was 2.96 and the “Second dissociation index (pK2)” value was 5.81. Also, the “Difference (pK2 - pK1)” value in series [2] is reported as 2.85.
Turning to `CC(C)C(C(=O)O)C(=O)O` [2-isopropylmalonic acid], in series [1], the “First acid dissociation index (pK1)” value was 2.92 and the “Second dissociation index (pK2)” value was 5.88. Also, the “Difference (pK2 - pK1)” value in series [2] is reported as 2.96.
Take `CC1CCCCC1(CC(=O)O)CC(=O)O` (centres unmarked) [2-methylcyclohexyl-1,1-diacetic acid]: in series [1], the “First acid dissociation index (pK1)” value is 3.53 and the “Second dissociation index (pK2)” value is 6.89. In series [2], the “Difference (pK2 - pK1)” value was determined as 3.36.
For the molecule `CC(C(=O)O)C(=O)O` [2-methylmalonic acid], in series [1], the “First acid dissociation index (pK1)” value is reported as 3.05 and the “Second dissociation index (pK2)” value is listed as 5.76. Further, the “Difference (pK2 - pK1)” value in series [2] was found to be 2.71.
With `CC(C)(C)C(C(=O)O)C(=O)O` [2-t-butylmalonic acid], in series [1], the “First acid dissociation index (pK1)” value was 2.92 and the “Second dissociation index (pK2)” value is 7.04. For the same molecule, the “Difference (pK2 - pK1)” value in series [2] is 4.12.
For `CCC(CC)(CC(=O)O)CC(=O)O` [3,3-diethylglutaric acid], in series [1], the “First acid dissociation index (pK1)” value is 3.67 and the “Second dissociation index (pK2)” value is given as 7.42. Moreover, the “Difference (pK2 - pK1)” value in series [2] came out at 3.75.
Regarding `CC(C)C(CC(=O)O)(CC(=O)O)C(C)C` [3,3-diisopropylglutaric acid], in series [1], the “First acid dissociation index (pK1)” value is listed as 3.65 and the “Second dissociation index (pK2)” value was 7.68. Besides, in series [2], the “Difference (pK2 - pK1)” value amounted to 4.05.
As to `CC1(C)[C@H](C(=O)O)[C@@H]1C(=O)O` [3,3-dimethyl-cis-1,2-cyclopropanedicarboxylic acid], in series [1], the “First acid dissociation index (pK1)” value is listed as 2.61 and the “Second dissociation index (pK2)” value is on record as 8.17. The “Difference (pK2 - pK1)” value in series [2] was 5.56.
`CC(C)(CC(=O)O)CC(=O)O` [3,3-dimethylglutaric acid]: in series [1], the “First acid dissociation index (pK1)” value is recorded as 3.85 and the “Second dissociation index (pK2)” value is listed as 6.45. Besides, in series [2], the “Difference (pK2 - pK1)” value stood at 2.60.
With `O=C(O)CC(CC(=O)O)(c1ccccc1)c1ccccc1` [3,3-diphenylglutaric acid], in series [1], the “First acid dissociation index (pK1)” value was 4.02 and the “Second dissociation index (pK2)” value is 6.81. Moreover, the “Difference (pK2 - pK1)” value in series [2] was 2.79.
Turning to `CCCC(CCC)(CC(=O)O)CC(=O)O` [3,3-dipropylglutaric acid], in series [1], the “First acid dissociation index (pK1)” value is on record as 3.65 and the “Second dissociation index (pK2)” value is 7.48. In addition, the “Difference (pK2 - pK1)” value in series [2] was 3.83.
On to `CCC(CC(=O)O)(CC(=O)O)c1ccccc1` [3-ethyl-3-phenylglutaric acid], for which, in series [1], the “First acid dissociation index (pK1)” value is given as 3.89 and the “Second dissociation index (pK2)” value is 6.95. In addition, the “Difference (pK2 - pK1)” value in series [2] is 3.06.
Regarding `CC(C)C(C)(CC(=O)O)CC(=O)O` [3-isopropyl-3-methylglutaric acid], in series [1], the “First acid dissociation index (pK1)” value is on record as 3.78 and the “Second dissociation index (pK2)” value was 6.92. Moreover, the “Difference (pK2 - pK1)” value in series [2] is 3.14.
For the molecule `O=C(O)[C@H]1CCCC[C@H]1C(=O)O` [Cis-1,2-cyclohexanedicarboxylic acid], the “Difference (pK2 - pK1)” value in series [2] turned out to be 2.49.
Same read-out and setting: with `O=C(O)/C=C\C(=O)O` [Maleic acid] the figure was 4.08.
Take “alkenylsuccinic acid carrying an alkenyl group having 12 carbon atoms [a-3]”: in series [2], the “first acid dissociation index” value came to 4.06 and the “second acid dissociation index” value was 6.01.
The corresponding values for “alkenylsuccinic acid carrying an alkenyl group having 14 carbon atoms [a-4]” are 4.01 and 6.12.

(Values after patent US6780403B1, “Deodorants” (Kao Corporation, priority 1999, dated 2004).)
